Structures are written as SMILES.

We go through 1 compound from patent US20220409521A1, “COMPOSITION FOR COSMETICS” (FE:I BEAUTY TECH, INC., priority 2021, published 2022).

The experiment concerns Primary human dermal fibroblast (HDF) cells. The experiment in a line: Ferritin induction in HDF cells (ferritin and protein by ELISA). The settings on record: Example 1; 5 μM in culture media, 18 hours; vs cells with no treatment. The class given is cell-based. The method, then:
Primary human dermal fibroblast (HDF) cells were cultured in Dulbecco's modified eagle medium (DMEM) with GlutaMAX™ and 10% Fetal Bovine Serum (FBS) and 1% Streptomycin (antibiotics). Before treatment, cells were seeded in a 12-well plate (1 ml culture media and surface area of the well is approximately 4.0 cm^2 per well) overnight. After washing twice with cold phosphate buffered saline (PBS), HDF cells were starved in 0.1% FBS for overnight. Subsequently, cells were treated with ferrous sulfate septahydrate (FeSO4·7H2O) at a final concentration of 5 μM for additional 18 hours. Cells with no treatment were used as a control. Cells were then washed with PBS and lysed. Levels of ferritin and protein were measured by using commercially available enzyme-linked immunosorbent assays (ELISA) kits and quantitated with standard curves constructed with human liver ferritin and human serum albumin as standards. The results were expressed as μg ferritin per mg protein and are show in FIG. 2.
The two iron oxides were premixed homogeneously in a 50% (v/v) of water and tertraethylene glycol and incubated at 3 mg/ml overnight at room temperature in a sodium acetate buffer (10 mM, pH 5.0), mimicking the pHs of acid rain or sweat. […] After the foregoing treatment, cells were collected and levels of ferritin and proteins in cells were measured and calculated as described in Example 1. […]
(In general: ELISA stands for enzyme-linked immunosorbent assay.)

Take `O.O.O.O.O.O.O.O=S(=O)([O-])[O-].[Fe+2]` [ferrous sulfate, ferrous sulfate septahydrate (FeSO4·7H2O)]: the “increase in level of ferritin compared to the control” value turned out to be 570%.
